The text below walks through data of patent publication US11987576B2, “Compositions and methods for decreasing, or preventing or reversing gain of, skin pigmentation in a mammalian subject” (THE TRUSTEES OF THE UNIVERSITY OF PENNSYLVANIA, priority 2015, dated 2024).

The test system of assay [1] is 3-D organotypic skin. Kind of assay: Fontana-Masson melanin staining of 3-D organotypic skin. It counts as cell-based, human. As to conditions: vs vehicle.
In a further assay the target is T1, PR (Homo sapiens, UniProt P06401).
T1 sequence (P06401 1-933): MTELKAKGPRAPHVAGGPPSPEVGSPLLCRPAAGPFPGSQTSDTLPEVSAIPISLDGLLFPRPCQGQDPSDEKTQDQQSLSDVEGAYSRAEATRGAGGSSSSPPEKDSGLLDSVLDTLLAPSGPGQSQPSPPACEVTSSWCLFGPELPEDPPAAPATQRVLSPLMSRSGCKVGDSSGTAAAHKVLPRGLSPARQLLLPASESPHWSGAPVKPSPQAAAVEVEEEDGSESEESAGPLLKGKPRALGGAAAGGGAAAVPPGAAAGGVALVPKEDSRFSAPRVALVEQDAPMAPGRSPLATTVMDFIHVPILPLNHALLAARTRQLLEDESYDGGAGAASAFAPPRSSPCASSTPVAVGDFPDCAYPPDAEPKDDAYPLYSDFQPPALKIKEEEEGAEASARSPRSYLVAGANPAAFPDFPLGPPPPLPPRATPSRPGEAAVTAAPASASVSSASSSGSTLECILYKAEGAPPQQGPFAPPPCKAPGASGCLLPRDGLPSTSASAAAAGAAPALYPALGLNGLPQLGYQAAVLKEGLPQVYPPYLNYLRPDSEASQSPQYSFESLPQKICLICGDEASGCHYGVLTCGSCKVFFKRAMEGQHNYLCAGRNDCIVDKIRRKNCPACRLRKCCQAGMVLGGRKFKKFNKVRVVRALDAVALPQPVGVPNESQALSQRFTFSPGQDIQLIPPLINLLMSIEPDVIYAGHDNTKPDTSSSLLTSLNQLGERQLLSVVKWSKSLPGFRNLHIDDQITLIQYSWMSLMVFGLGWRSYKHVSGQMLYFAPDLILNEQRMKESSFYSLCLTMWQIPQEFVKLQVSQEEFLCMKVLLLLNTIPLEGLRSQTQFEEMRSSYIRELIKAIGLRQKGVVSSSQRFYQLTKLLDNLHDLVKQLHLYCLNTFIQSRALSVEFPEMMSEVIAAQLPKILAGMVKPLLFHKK
The note with it: cited from earlier work.

A further assay relates to ER. The note with it: cited from earlier work.
Assay [2] has as its system 3-D organotypic skin. Briefly: MITF immunohistochemistry of organotypic skin (melanocyte population density). It is filed as cell-based, human. The note with it: vs vehicle. From the text: Formalin fixed paraffin embedded (FFPE) human skin tissue sections from organotypic tissue was stained for MITF protein expression using a primary antibody to MITF (Leica Biosystems, NCL-L-MITF, 1:15).

The next assay concerns cAMP. Kind of assay: cAMP ELISA on primary human melanocytes. It counts as cell-based. The method, then: cAMP ELISA was performed on primary human melanocytes using the Cyclic AMP XP Assay Kit (Cell Signaling Technology, #4339) following manufacturer instructions.
A general note: ELISA stands for enzyme-linked immunosorbent assay.

The next assay deals with pCREB and MITF. Kind of assay: Western blot of classical melanin pathway regulators in melanocytes. It counts as cell-based, human. As to conditions: 1 μM overnight. How it is done: Adherent cells were treated with 1 μM doses of E2 and P4 overnight, washed once with DPBS, and lysed with 1% NP-40 buffer (150 mM NaCl, 50 mM Tris, pH 7.5, 1 mM EDTA, and 1% NP-40) containing 1× protease inhibitors (Roche) and 1× phosphatase inhibitors (Roche). Lysates were quantified (Bradford assay), normalized, reduced, denatured (95° C.) and resolved by SDS gel electrophoresis on 4-15% Tris/Glycine gels (Bio-Rad). Resolved protein was transferred to PVDF membranes (Millipore) using a Semi-Dry Transfer Cell (Bio-Rad), blocked in 5% dry milk in TBS-T and probed with primary antibodies recognizing MITF (Cell Signaling Technology, #12590, 1:1000), pCREB (Cell Signaling Technology, #9198, 1:1000), CREB (Cell Signaling Technology, #9104, 1:1000), and β-Actin (Cell Signaling Technology, #3700, 1:4000). After incubation with the appropriate secondary antibody, proteins were detected using either Luminata Crescendo Western HRP Substrate (Millipore) or ECL Western Blotting Analysis System (GE Healthcare).

SMILES strings stand for the structures.

As for `C=C[C@]12CCC(=O)C=C1CC[C@H]1[C@@H]3CC[C@H](C(C)=O)[C@@]3(C)CC[C@@H]12` (relative stereo) [CH2P4, rel-(8S,9S,10S,13 S,14S,17S)-17-acetyl-13-methyl-10-vinyl-6,7,8,9,10,11,12,13,14,15,16,17-dodecahydro-1H-cyclopenta[a]phenanthren-3 (2H)-one], the “melanin production in skin tissue” value in the assay with 3-D organotypic skin [1] is “decrease in melanin production”. On PR, the “binding to PR” value was “does not bind”.
As for `Brc1cc2c(cc1[C@H]1Nc3ccccc3[C@@H]3C=CC[C@H]13)OCO2` (relative stereo) [G-15, rel-(3aS,4S,9bR)-4-(6-bromobenzo[d][1,3]dioxol-5-yl)-3a,4,5,9b-tetrahydro-3H-cyclopenta[c]quinoline], the “inhibitory activity against ER” value in the assay with ER is recorded as “do not have inhibitory activity”.
`CC(=O)[C@H]1CC[C@H]2[C@@H]3CCC4=CC(=O)CC[C@]4(C)[C@H]3CC[C@]12C` [progesterone]: the “melanin production in skin tissue” value in the assay with 3-D organotypic skin [1] is on record as “decreased melanin production by nearly half”. In addition, the “total melanocyte number or density” value in the assay with 3-D organotypic skin [2] is reported as “without affecting overall melanocyte cell number”. Moreover, the cAMP entry with cAMP was “decreases”. Besides, in the assay on pCREB and MITF, the MITF protein result is “decreases” and the pCREB protein result is “decreases”.
